Experimental data reported in PubChem BioAssay (NCI).
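Each compound was tested at five concentrations against cells in 96-well plates for 48 hours. At the GI50, growth is halved. TGI: total growth inhibition.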

How the values were obtained:
Assay in all cases: NCI-60 cell line screen, 48 h
[1] = tested on: A549 NSCLC
[2] = tested on: HCT-116 colon
[3] = tested on: HL-60(TB) leukemia
[4] = tested on: HOP-92 NSCLC
[5] = tested on: M14 melanoma
[6] = tested on: MOLT-4 leukemia
[7] = tested on: OVCAR-4 ovarian
[8] = tested on: RPMI-8226 leukemia
[9] = tested on: SW-620 colon
[10] = tested on: UO-31 renal

Row | SMILES | GI50 [1] [µM] | TGI [1] [µM] | GI50 [2] [µM] | TGI [2] [µM] | GI50 [3] [µM] | TGI [3] [µM] | GI50 [4] [µM] | TGI [4] [µM] | GI50 [5] [µM] | TGI [5] [µM] | GI50 [6] [µM] | TGI [6] [µM] | GI50 [7] [µM] | TGI [7] [µM] | GI50 [8] [µM] | TGI [8] [µM] | GI50 [9] [µM] | TGI [9] [µM] | GI50 [10] [µM] | TGI [10] [µM]
1 | CN=C1NC(=O)/C(=C/c2ccc3ncccc3c2)S1 | 5.13 | > 25 | 5.29 | > 25 | 8.73 | > 25 | 8.03 | > 25 | 9.6 | > 25 | 11.2 | > 25 | 10.2 | > 25 | 12.1 | > 25 | 8.41 | > 25 | 5.29 | > 25
2 | O=C1c2ccccc2C(=O)c2c1ccc1[nH]c(CCl)nc21 | 2.81 | 10.2 | 1.85 | 4.7 | 2.64 | 7 | 1.58 | 6.26 | 9.97 | 22.8 | 1.68 | 8.04 | 3.05 | 11.2 | 1.83 | 5.87 | 1.56 | 3.3 | 2.72 | 9.22
3 | Cn1cc(C2=C(c3ccc(OC[C@@H](O)CO)cc3)C(=O)NC2=O)c2ccccc21 | > 25 | > 25 | > 25 | > 25 | > 25 | > 25 | > 25 | > 25 | > 25 | > 25 | > 25 | > 25 | > 25 | > 25 | > 25 | > 25 | > 25 | > 25 | > 25 | > 25
4 | CC(=O)OCCc1cccnc1/C=N/O | – | > 100 | – | > 100 | – | > 100 | – | > 100 | – | > 100 | – | > 100 | – | > 100 | – | – | – | > 100 | – | > 100
5 | CCN1CCN(c2nc(NCCNc3ccnc4cc(Cl)ccc34)c3ccccc3n2)CC1 | 2.21 | 8.48 | 1.1 | 6.13 | 2.01 | 4.01 | 1.14 | 2.49 | 1.59 | 3.36 | 2.13 | 7.17 | 1.78 | 4.45 | 1.54 | 4.41 | 0.707 | 5.14 | 1.53 | 3.3
6 | CCCCCCCCCCCCOC1C(CNCC2OC3OC(C)(C)OC3C2NC(=O)Nc2ccc(C(=O)OCC)cc2)OC2OC(C)(C)OC21 (centres undefined) | 2.23 | 4.76 | 1.72 | 3.14 | 2.65 | 5.9 | 1.84 | 3.92 | 1.77 | 3.38 | 3.39 | 8.43 | 1.87 | 4.25 | 2.13 | 4.53 | 1.75 | 3.29 | 3.96 | 13.8
7 | O=C(O)Cc1c[nH]c2ccc(F)cc12 | – | > 100 | – | > 100 | – | > 100 | – | > 100 | – | > 100 | – | > 100 | – | > 100 | – | > 100 | – | > 100 | – | > 100
